# Legend:
# [1] = target: T1, recombinant human secretory phospholipase A2 (Homo sapiens, UniProt P14555); experiment: Inhibition Test of Human Secretory Phospholipase A2 (chromogenic assay); assay type: biochemical; conditions: sPLA2 50 ng/well, 40° C., 30 minutes, OD 405 nm, 96 well microtiterplate
# T1 sequence (P14555 21-144): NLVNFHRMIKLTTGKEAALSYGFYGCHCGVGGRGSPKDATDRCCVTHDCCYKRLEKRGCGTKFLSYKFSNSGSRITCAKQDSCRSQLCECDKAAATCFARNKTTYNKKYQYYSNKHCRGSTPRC
# From the text: Test Example: Inhibition Test of Human Secretory Phospholipase A2
# In order to identify and evaluate an inhibitor of recombinant human secretory phospholipase A2, the following chromogenic assay is utilized. The assay herein has been applied for high volume screening wherein 96 well microtiterplate is used. A general explanation for such assay is described in “Analysis of Human Synovial Fluid Phospholipase A2 on Short Chain Phosphatidylcholine-Mixed Micelles: Development of a Spectrophotometric Assay Suitable for a Micortiterplate Reader” (Analytical Biochemistry, 204, pp 190-197, 1992 by Laure. J. Reynolds. Lori L. Hughes and Edward A. Dennis: the disclosure of which is incorporated herein for reference.
# pH 7.5 (adjusted with NaOH)
# pH 4.5 (adjusted with acetic acid)
# 1 mg of sPLA2 is dissolved in 1 ml of an enzyme buffer. Thereafter, the solution is maintained at 4° C.
# In the assay, 5 μl of the solution is diluted with 1995 μl of the reaction buffer to be used.
# 198 mg of 5,5′-dithiobis-2-[…] (manufactured by Wako Pure Chemicals) is dissolved in 100 ml of H2O
# H 7.5 (adjusted with NaOH)
# 100 mg of racemic 1,2-bis(heptanoylthio)-1,2-dideoxy-sn-glycero-3-phospholylcholine is dissolved in 1 ml of chloroform.
# 624.9 mg of Triton-X 100 is dissolved in the reaction buffer.
# Enzyme Reaction: for 1 Plate of Microtiterplate
# 1) 0.106 ml of the substrate solution is put in a centrifugal tube, and nitrogen gas is jetted to remove the solvent. 0.54 ml of Triton-X 100 is added thereto, the mixture is stirred, thereafter it is sonified in a bath type sonification to dissolve. To the resulting product are added 17.8 ml of the reaction buffer and 0.46 ml of DTNB, and 0.18 ml each of the admixture is poured to wells of the 96 well microtiterplate.
# 2) 10 μl of a test compound (or solvent blank) are added in accordance with alignment of plates which has been previously set.
# 3) Incubation is effected at 40° C. for 15 minutes.
# 4) 20μl of an enzyme solution (sPLA2) which has been previously diluted (50 ng/well) are added to start reaction (40° C., 30 minutes).
# 5) Changes in absorbancy for 30 minutes are measured by a plate reader, and inhibition activity was calculated (OD: 405 nm).
# 6) IC50 was determined by plotting log concentration with respect to inhibition values within 10% to 90% inhibiting range.
melting point [°C],IC50 [1] [nM],Compound
134.5 to 136,22,CCc1c(C(=O)C(N)=O)c2c(OCC(=O)OC)nc(C)cn2c1Cc1ccccc1Cc1ccccc1 [Compound I-27]
180.5 to 182.5,7,CCc1c(C(=O)C(N)=O)c2c(OCC(=O)O)nc(C)cn2c1Cc1ccccc1Cc1ccccc1 [Compound I-28]
147 to 149,56,CCc1c(C(=O)C(N)=O)c2c(OCC(=O)OC)nc(C)cn2c1Cc1ccccc1-c1ccc(F)cc1 [Compound I-29]
175 to 177,8,CCc1c(C(=O)C(N)=O)c2c(OCC(=O)O)nc(C)cn2c1Cc1ccccc1-c1ccc(F)cc1 [Compound I-30]
161 to 163,1170,CCc1c(C(=O)C(N)=O)c2c(OCC(=O)OC)nc(C)cn2c1Cc1ccc(F)cc1F [Compound I-31]
208 to 210,28,CCc1c(C(=O)C(N)=O)c2c(OCC(=O)O)nc(C)cn2c1Cc1ccc(F)cc1F [Compound I-32]
189 to 190,703,CCc1c(C(=O)C(N)=O)c2c(OCC(=O)OC)nc(C)cn2c1Cc1ccc(OC)cc1 [Compound I-33]
200 to 201.5,26,CCc1c(C(=O)C(N)=O)c2c(OCC(=O)O)nc(C)cn2c1Cc1ccc(OC)cc1 [Compound I-34]
179.5 to 181,182,CCc1c(C(=O)C(N)=O)c2c(OCC(=O)OC)nc(C)cn2c1Cc1cccc(F)c1 [Compound I-35]
190.5 to 193,11,CCc1c(C(=O)C(N)=O)c2c(OCC(=O)O)nc(C)cn2c1Cc1cccc(F)c1 [Compound I-36]
201 to 202,726,CCc1c(C(=O)C(N)=O)c2c(OCC(=O)OC)nc(CO)cn2c1Cc1ccccc1 [Compound I-37]
211 to 212,33,CCc1c(C(=O)C(N)=O)c2c(OCC(=O)O)nc(CO)cn2c1Cc1ccccc1 [Compound I-38]
190 to 191,151,CCc1c(C(=O)C(N)=O)c2c(OCC(=O)OC)nc(C(C)C)cn2c1Cc1ccccc1 [Compound I-39]
211 to 213,12,CCc1c(C(=O)C(N)=O)c2c(OCC(=O)O)nc(C(C)C)cn2c1Cc1ccccc1 [Compound I-40]
154 to 156,107,CCc1cn2c(Cc3ccccc3)c(CC)c(C(=O)C(N)=O)c2c(OCC(=O)OC)n1 [Compound I-41]
197 to 198,10,CCc1cn2c(Cc3ccccc3)c(CC)c(C(=O)C(N)=O)c2c(OCC(=O)O)n1 [Compound I-42]
203 to 205,41,CCc1c(C(=O)C(N)=O)c2c(OCC(=O)OC)nc(-c3ccccc3)cn2c1Cc1ccccc1 [Compound I-43]
233 to 234,7,CCc1c(C(=O)C(N)=O)c2c(OCC(=O)O)nc(-c3ccccc3)cn2c1Cc1ccccc1 [Compound I-44]
129 to 130,117,CCc1c(C(=O)C(N)=O)c2c(OCC(=O)OC)nc(CC(C)C)cn2c1Cc1ccccc1 [Compound I-45]
216 to 217,10,CCc1c(C(=O)C(N)=O)c2c(OCC(=O)O)nc(CC(C)C)cn2c1Cc1ccccc1 [Compound I-46]
178 to 180,211,CCc1c(C(=O)C(N)=O)c2c(OCC(=O)OC)nc(Cc3ccccc3)cn2c1Cc1ccccc1 [Compound I-49]
200 to 202,17,CCc1c(C(=O)C(N)=O)c2c(OCC(=O)O)nc(Cc3ccccc3)cn2c1Cc1ccccc1 [Compound I-50]
134.5 to 136,61,CCc1c(C(=O)C(N)=O)c2c(OCC(=O)OC)nc(C)cn2c1Cc1ccccc1-c1cccs1 [Compound I-51]
147 to 149,59,CCc1c(C(=O)C(N)=O)c2c(OCC(=O)OC)nc(C)cn2c1Cc1ccccc1C#Cc1ccccc1 [Compound I-53]

melting point [°C],IC50 [1] [nM],Compound
161 to 163,32,CCc1c(C(=O)C(N)=O)c2c(OCC(=O)OC)nc(C)cn2c1Cc1ccccc1Oc1ccccc1 [Compound I-55]
208 to 210,6,"CCc1c(C(=O)C(N)=O)c2c(OCC(=O)O)nc(C)cn2c1Cc1ccccc1Oc1ccccc1 [Compound I-56, [7-Ethyl-3-methyl-8-oxamoyl-6-(2-phenyloxybenzyl)pyrrolo [1,2-a]pyrazin-1-yl]oxyacetic acid]"
179.5 to 181,57,CCc1c(C(=O)C(N)=O)c2c(OCC(=O)OC)nc(C)cn2c1Cc1cccc(-c2ccc(C)s2)c1 [Compound I-63]
190.5 to 193,6,CCc1c(C(=O)C(N)=O)c2c(OCC(=O)O)nc(C)cn2c1Cc1cccc(-c2ccc(C)s2)c1 [Compound I-64]
167.5 to 169.5,33,CCc1c(C(=O)C(N)=O)c2c(OCC(=O)OC)nc(C)cn2c1Cc1ccccc1-c1ccc(C)cc1 [Compound I-69]
179.5 to 181.5,5,CCc1c(C(=O)C(N)=O)c2c(OCC(=O)O)nc(C)cn2c1Cc1ccccc1-c1ccc(C)cc1 [Compound I-70]
190 to 192,901,CCc1c(C(=O)C(N)=O)c2c(OCC(=O)OC)nc(C)cn2c1Cc1ccccc1C(=O)c1ccccc1 [Compound I-71]
131 to 133,13,CCc1c(C(=O)C(N)=O)c2c(OCC(=O)O)nc(C)cn2c1Cc1ccccc1C(=O)c1ccccc1 [Compound I-72]
215 to 217,129,CCc1c(C(=O)C(N)=O)c2c(OCC(=O)OC)nc(C)cn2c1Cc1ccccc1CCc1ccccc1 [Compound I-73]
189 to 191,6,CCc1c(C(=O)C(N)=O)c2c(OCC(=O)O)nc(C)cn2c1Cc1ccccc1CCc1ccccc1 [Compound I-74]
210 to 211.5,1460,COC(=O)COc1nc(C)cn2c(Cc3ccccc3)c(C3CC3)c(C(=O)C(N)=O)c12 [Compound I-75]
194.5 to 196,29,Cc1cn2c(Cc3ccccc3)c(C3CC3)c(C(=O)C(N)=O)c2c(OCC(=O)O)n1 [Compound I-76]
179 to 182.5,1380,COC(=O)COc1nc(C)cn2c(Cc3ccc(F)cc3)c(C3CC3)c(C(=O)C(N)=O)c12 [Compound I-77]
185 to 187,60,Cc1cn2c(Cc3ccc(F)cc3)c(C3CC3)c(C(=O)C(N)=O)c2c(OCC(=O)O)n1 [Compound I-78]
193 to 194,62,CCc1c(C(=O)C(N)=O)c2c(OCC(=O)OC)nc(C3CCCCC3)cn2c1Cc1ccccc1 [Compound I-79]
227 to 230,6,CCc1c(C(=O)C(N)=O)c2c(OCC(=O)O)nc(C3CCCCC3)cn2c1Cc1ccccc1 [Compound I-80]
161.5 to 162.5,201,CCc1c(C(=O)C(N)=O)c2c(OCC(=O)OC)nc(C3CCCCC3)cn2c1Cc1ccccc1-c1ccccc1 [Compound I-81]
200 to 201.5,5,CCc1c(C(=O)C(N)=O)c2c(OCC(=O)O)nc(C3CCCCC3)cn2c1Cc1ccccc1-c1ccccc1 [Compound I-82]
205 to 207,116,COC(=O)COc1nc(C)cn2c(Cc3ccccc3)c(C)c(C(=O)C(N)=O)c12 [Compound I-83]
199.5 to 201,8,Cc1cn2c(Cc3ccccc3)c(C)c(C(=O)C(N)=O)c2c(OCC(=O)O)n1 [Compound I-84]
203 to 204,370,CCc1c(C(=O)C(N)=O)c2c(OCC(=O)OC)nc(C)cn2c1Cc1ccc(C)s1 [Compound I-85]
216.5 to 218,11,CCc1c(C(=O)C(N)=O)c2c(OCC(=O)O)nc(C)cn2c1Cc1ccc(C)s1 [Compound I-86]
186 to 187,129,CCc1c(C(=O)C(N)=O)c2c(OCC(=O)OC)nc(C)cn2c1Cc1csc2ccccc12 [Compound I-87]

# Reference: patent US6407104B1, “Pyrrolo[1,2-a]pyrazine spla2 inhibitor” (Shionogi & Co., Ltd., priority 1998, dated 2002)
